Measured values: US10537610B1, “Peptide for inhibition of cancer” (priority 2018, dated 2020)
Read-outs that look alike come from different tables or passages of the source. Non-standard residues stand in square brackets, D forms with d. Residues, ends and D or L forms follow the SMILES beside them.

Columns and labels:
JAM-A = test: Western blot of JAM-A protein in HMEC-1 cells; assay type: cell-based, human
Experimental: The cells were lysed with lysis buffer (1% Triton X-100 and 0.1% SDS in PBS) supplemented with Halt Protease Inhibitor Cocktail (Thermo Scientific, Waltham, Mass., USA). For the equalization between the samples before the semi-quantitative analyses the protein content of lysates was determined with the BCA Protein Assay Kit according to the manufacturer's protocol (Thermo Scientific). Cell lysate aliquots at a protein content of 50 μg per sample were boiled with 5× concentrated loading buffer (final concentrations: 50 mM Tris-HCl, pH 6.8, 8% glycerol, 2% SDS, 5% β-mercaptoethanol, 0.002% bromophenol blue), separated under reducing conditions on 4-20% gradient SDS-PAGE gels (Bio-Rad) and electroblotted (120 min, 200 mA, 4° C.) onto polyvinylidene difluoride (PVDF) membranes (Bio-Rad). The membranes were washed with Tris-buffered saline (TBS) and blocked for 2 hours with TBS containing 5% nonfat dry milk at room temperature. Then, the membranes were incubated overnight at 4° C. with an appropriate amount of primary antibody diluted in TBS containing 0.05% Tween 20 (TBST). The following primary antibodies were used: monoclonal rabbit anti-JAM-A (Abcam, Cambridge, UK) at a dilution of 1:500 and monoclonal mouse anti-GAPDH (R&D Systems, Minneapolis, Minn., USA) at a dilution of 1:1000. The membranes were washed several times with TBST and incubated for 1 hour at room temperature with the corresponding polyclonal anti-rabbit and anti-mouse HRP-conjugated secondary antibodies (Santa Cruz Biotechnology, Dallas, Tex., USA) at a 1:5000 dilution in TBST. Following the subsequent washes with TBST the membranes were further processed for chemiluminescent detection using Westar TiC ECL Substrate (Cyanagen, Bologna, Italy) and the images were documented by ChemiDoc MP Imager (Bio-Rad).

[1] = test system: HMEC-1 endothelial monolayer; assay type: cell-based, human
Experimental: The cells were treated with the peptide P4D for 0, 1, 5, or 24 hours at a concentration of 500 μM. The cells treated with the Scrambled peptide P4D (Scr; 500 μM; 0, 1, 5, or 24 hours incubation time) were used as a negative control. In order to provide the positive control of the junctions tightening for impedance-based measurements of endothelial permeability, the cells were incubated with the potent activator of TJ assembly, forskolin (FSK; BioShop, Burlington, ON, Canada), for 24 hours at a concentration of 10 μM. Experiments based on impedance measurements were performed at Bionanopark, Ltd. (Lodz, Poland) with an ACEA xCELLigence® Real-Time Cell Analysis (RTCA) DP system (Roche, Mannheim, Germany) consisting of an RTCA DP instrument, a personal computer-based RTCA control unit and single-use electronic 16-well plates “E-Plate VIEW 16 PET”. All experiments were performed following the manufacturer's instructions. In brief, the gold-film electrodes deposited on the bottom of the “E-plate VIEW 16 PET” electrode arrays were equilibrated with MCDB 131 culture medium overnight. Subsequently, the medium was aspirated and replaced by a 100 μL of fresh medium for impedance background measurements. HMEC-1 cells were seeded at a density of 40,000 cells per well in MCDB 131 medium with supplements. After allowing cell sedimentation for 30 min at room temperature, plates were locked into the RTCA DP instrument for continuous recording of impedance changes at three different AC frequencies (10 kHz, 25 kHz, 50 kHz), which are expressed as Cell Index (CI) values. CI is a dimensionless parameter based on relative impedance changes referenced to the values of the cell-free electrode at each frequency: [formula] where N is the number of the frequency points at which the impedance was measured, whereas […] Rb(fi) are the frequency-dependent electrode resistances with cells present and without cells, respectively. Thus, CI is a quantitative measure of cell status in a well, including the cell number, cell viability, adhesion degree, and morphology. Although CI is measured at three frequencies, only the most sensitive readings are returned by the software as a function of time and reported as the final results. In general, CI values rise with increasing coverage of the electrode with cells, which is caused at an early stage by cell sedimentation and, later on, by cell proliferation. During the phase of logarithmic cell growth HMEC-1 cells were pretreated with cytokines (TNF/IFN) and after 24 hours subsequently treated with the tested compounds (Scr, P4D, or FSK). For some experiments, the cells were treated with the compounds 2 hours after the cytokines treatment. Alternatively, the compounds treatment was applied about 3 hours after HMEC-1 seeding and about 67 hours later was followed by the cytokines treatment. This experimental approach included additionally the sample designated as 'P4D & TNF/IFN' i.e. after the pretreatment with P4D the cells were subjected to the concurrent treatment with P4D and cytokines.

Row | Compound | level of JAM-A protein (JAM-A; Tβ4 200 nM or TGF-β1 10 ng/mL, 24-hours incubation) | action on JAM-A expression over incubation time (JAM-A; Tβ4 200 nM, 0, 2, 5, or 12 hours) | barrier-protecting effect (Cell Index) ([1]; P4D about 2.5 hours after plating plus second supplementary dose simultaneously with cytokines ('P4D & TNF/IFN')) | barrier-protecting effect (Cell Index) ([1]; P4D about 2.5 hours after plating, cytokines about 60 hours later, no supplementary dose) | barrier-strengthening effect relative to forskolin ([1]; applied ~24 hours after seeding, FSK 10 μM) | endothelial barrier function (Cell Index) ([1]; applied ~24 hours after seeding, compared to controls) | barrier-protecting effect (Cell Index) ([1]; compound applied 24 hours after treatment with inflammatory cytokines (TNF/IFN))
1 | Thymosin β4 (SDKPDMAEIEKFDKSKLKKTETQEKNPLPSKETIEQEKQAGES; not fully specified; Thymosin beta-4; UniProt P62328 2-44, looked up) [Tβ4] | evidently reduced the level of JAM-A protein | time-dependent | – | – | – | – | –
2 | CC(C)[C@H](NC(=O)[C@H](CO)NC(=O)[C@H](N)CCCCN)C(=O)N[C@H](C(=O)N[C@H](CCCNC(=N)N)C(=O)N[C@@H](CCC(=O)O)C(=O)N[C@@H](CC(=O)O)C(=O)N[C@H](C(=O)NCC(=O)N[C@H](C(=O)N[C@@H](Cc1ccc(O)cc1)C(=O)N[C@H](C(=O)N[C@@H](CS)C(N)=O)[C@@H](C)O)[C@@H](C)O)[C@@H](C)O)[C@@H](C)O [Peptide P4D, NH2-(dK)-SVT-(dR)-EDTGTYTC-CONH2] (H-[dK]SVT[dR]EDTGTYTC-NH2) | – | – | even more evident than that one of FSK | did not reveal any barrier-protecting properties | apparently weaker than that one of forskolin | slightly strengthened endothelial barrier function | did not reproduce the barrier-protecting effect of FSK
